Values quoted from earlier work in patent US9402854B2, “Pharmaceutical composition” (Cipla Limited, priority 2012, dated 2016).

Settings: versus racemic formoterol (contains both (S,S) and (R,R) enantiomers)

COc1ccc(C[C@@H](C)NC[C@H](O)c2ccc(O)c(NC=O)c2)cc1 [Arformoterol]
potency relative to racemic formoterol: two-fold greater potency
